Tests used:
CRS mice [1] = test: TST in chronic restraint stress; type: in vivo, mouse
scopolamine-treated mice = test: NOR in scopolamine-induced cognitive deficit; type: in vivo, mouse
CRS mice [2] = test: FST in chronic restraint stress; type: in vivo, mouse
native KCNQ/M channels = test: Whole-cell recording of native M current in cultured hippocampal neurons; conditions: measured at −60 mV
normal mice = test: Novel object recognition; type: in vivo, mouse
CRS mice [3] = test: Morris water maze; type: in vivo, mouse
KCNQ2/3 channels = KCNQ2/3 channels (Homo sapiens, UniProt O43525+O43526); type: cell-based
KCNQ2/3 channels, sequence (O43525 whole entry): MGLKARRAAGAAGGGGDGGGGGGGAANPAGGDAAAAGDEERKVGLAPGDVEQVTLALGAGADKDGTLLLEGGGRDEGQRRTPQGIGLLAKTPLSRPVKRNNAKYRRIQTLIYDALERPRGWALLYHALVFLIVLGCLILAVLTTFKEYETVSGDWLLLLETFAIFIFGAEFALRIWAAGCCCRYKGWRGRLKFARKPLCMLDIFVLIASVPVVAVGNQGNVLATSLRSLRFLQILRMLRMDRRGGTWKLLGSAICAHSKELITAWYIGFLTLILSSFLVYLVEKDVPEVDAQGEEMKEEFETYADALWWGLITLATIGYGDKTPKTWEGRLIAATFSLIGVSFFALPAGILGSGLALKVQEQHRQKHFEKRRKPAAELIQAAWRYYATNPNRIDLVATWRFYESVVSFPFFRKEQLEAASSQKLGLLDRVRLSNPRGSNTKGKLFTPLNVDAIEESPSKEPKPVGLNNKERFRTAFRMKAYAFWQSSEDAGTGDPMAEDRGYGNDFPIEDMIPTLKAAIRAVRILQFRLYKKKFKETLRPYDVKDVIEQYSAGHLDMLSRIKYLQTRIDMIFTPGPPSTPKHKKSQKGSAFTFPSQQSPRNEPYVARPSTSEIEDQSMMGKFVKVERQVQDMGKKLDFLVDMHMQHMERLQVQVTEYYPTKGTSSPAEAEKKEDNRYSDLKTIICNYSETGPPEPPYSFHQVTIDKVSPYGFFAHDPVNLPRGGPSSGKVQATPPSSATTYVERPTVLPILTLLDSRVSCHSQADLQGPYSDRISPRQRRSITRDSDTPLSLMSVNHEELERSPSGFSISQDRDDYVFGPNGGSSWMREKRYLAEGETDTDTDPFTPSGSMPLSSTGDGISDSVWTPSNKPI
KCNQ2/3 channels, sequence (O43526 whole entry): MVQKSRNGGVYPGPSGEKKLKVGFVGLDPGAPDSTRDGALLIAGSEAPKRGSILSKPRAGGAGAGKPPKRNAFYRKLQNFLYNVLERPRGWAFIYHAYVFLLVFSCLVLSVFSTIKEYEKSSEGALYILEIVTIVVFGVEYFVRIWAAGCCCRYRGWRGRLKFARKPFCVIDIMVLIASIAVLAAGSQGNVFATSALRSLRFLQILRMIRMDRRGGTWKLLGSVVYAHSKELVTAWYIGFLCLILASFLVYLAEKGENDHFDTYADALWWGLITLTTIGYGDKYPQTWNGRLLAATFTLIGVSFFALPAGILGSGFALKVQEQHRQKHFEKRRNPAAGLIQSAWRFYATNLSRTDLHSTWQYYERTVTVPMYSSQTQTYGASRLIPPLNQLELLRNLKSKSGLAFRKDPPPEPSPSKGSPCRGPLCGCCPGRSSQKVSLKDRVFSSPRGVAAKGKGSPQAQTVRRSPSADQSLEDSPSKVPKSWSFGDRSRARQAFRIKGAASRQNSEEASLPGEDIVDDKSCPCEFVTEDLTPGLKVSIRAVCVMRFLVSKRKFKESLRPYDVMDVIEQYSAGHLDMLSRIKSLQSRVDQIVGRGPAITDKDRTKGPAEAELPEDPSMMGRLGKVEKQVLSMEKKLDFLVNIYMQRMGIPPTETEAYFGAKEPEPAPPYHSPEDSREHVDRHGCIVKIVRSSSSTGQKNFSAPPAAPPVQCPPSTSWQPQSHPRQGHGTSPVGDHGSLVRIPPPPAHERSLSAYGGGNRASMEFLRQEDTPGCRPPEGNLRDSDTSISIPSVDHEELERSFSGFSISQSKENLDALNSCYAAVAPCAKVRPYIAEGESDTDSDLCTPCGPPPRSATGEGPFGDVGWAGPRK

α1 = test: Receptor binding, [3H]-Prazosin
Sigma-1 = Sigma-1 (Homo sapiens, UniProt Q99720); test: Receptor binding, [3H]-Pentazocine; conditions: read-out: % Inhibition of binding by D01 (10 μmol/L)
Sigma-1, sequence (Q99720 whole entry): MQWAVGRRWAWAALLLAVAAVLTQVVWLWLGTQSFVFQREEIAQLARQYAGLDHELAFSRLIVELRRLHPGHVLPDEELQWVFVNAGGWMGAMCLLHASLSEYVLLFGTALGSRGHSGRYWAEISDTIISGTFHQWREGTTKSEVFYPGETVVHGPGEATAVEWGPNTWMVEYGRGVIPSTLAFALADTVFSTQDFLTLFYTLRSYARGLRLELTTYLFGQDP

H3 = H3 (Homo sapiens, UniProt Q9Y5N1); test: Receptor binding, [3H]-Methylhistamine; conditions: read-out: % Inhibition of binding by D01 (10 μmol/L)
hippocampal neurons = test: Resting membrane potential and firing of cultured hippocampal neurons; type: cell-based, rat; conditions: 100 μmol/L
D1 = D1 (Homo sapiens, UniProt P21728); test: Receptor binding, [3H]-SCH23390; conditions: read-out: % Inhibition of binding by D01 (10 μmol/L)
D1, sequence (P21728 whole entry): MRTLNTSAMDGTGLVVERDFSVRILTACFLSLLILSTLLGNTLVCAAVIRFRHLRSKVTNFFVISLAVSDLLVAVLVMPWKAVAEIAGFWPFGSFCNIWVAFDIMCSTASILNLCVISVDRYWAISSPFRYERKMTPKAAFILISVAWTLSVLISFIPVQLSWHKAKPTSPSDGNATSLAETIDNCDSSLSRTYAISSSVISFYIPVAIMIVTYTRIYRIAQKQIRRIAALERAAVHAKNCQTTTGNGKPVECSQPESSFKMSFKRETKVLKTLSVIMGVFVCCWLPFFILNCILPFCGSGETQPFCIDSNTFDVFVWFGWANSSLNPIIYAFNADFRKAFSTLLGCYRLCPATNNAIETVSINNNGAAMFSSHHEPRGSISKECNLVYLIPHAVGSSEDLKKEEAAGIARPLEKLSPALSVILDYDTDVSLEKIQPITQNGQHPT

SERT = SERT (Rattus norvegicus, UniProt P31652); test: [3H]5-HT uptake by crude synaptosomes; type: biochemical
mice [4] = test: Tail suspension test; type: in vivo, mouse; conditions: i.g., 60 min before test, doses 10, 30, 100 mg/kg
hippocampal slices, CA1 = test: LTP recording; type: in vivo, mouse; conditions: 30 mg/kg i.p. + scopolamine 1 mg/kg i.p.
mice [5] = test: Forced swimming test; type: in vivo, mouse; conditions: i.g., 1 h before test, doses 10, 30, 100 mg/kg
NMDA = test: Receptor binding, [3H]-MK801
M1 = M1 (Homo sapiens, UniProt P11229); test: Receptor binding, [3H]-QNB; conditions: read-out: % Inhibition of binding by D01 (10 μmol/L)
M1, sequence (P11229 whole entry): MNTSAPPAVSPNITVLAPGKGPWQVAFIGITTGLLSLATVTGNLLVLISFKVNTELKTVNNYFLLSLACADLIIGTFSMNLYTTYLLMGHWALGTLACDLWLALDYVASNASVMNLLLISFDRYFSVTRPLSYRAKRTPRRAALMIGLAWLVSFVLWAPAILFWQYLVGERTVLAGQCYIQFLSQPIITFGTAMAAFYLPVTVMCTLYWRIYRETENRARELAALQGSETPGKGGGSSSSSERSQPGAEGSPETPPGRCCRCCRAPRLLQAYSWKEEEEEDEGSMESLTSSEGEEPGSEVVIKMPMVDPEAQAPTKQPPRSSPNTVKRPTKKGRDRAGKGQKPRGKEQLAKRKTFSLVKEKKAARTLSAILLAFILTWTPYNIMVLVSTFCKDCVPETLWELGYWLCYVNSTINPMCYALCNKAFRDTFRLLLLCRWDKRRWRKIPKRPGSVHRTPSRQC

5-HT1A = 5-HT1A (Homo sapiens, UniProt P08908); test: Receptor binding, [3H]-8-OH-DPAT; conditions: read-out: % Inhibition of binding by D01 (10 μmol/L)
D2 = D2 (Homo sapiens, UniProt P14416); test: Receptor binding, [3H]-Spiperone; conditions: read-out: % Inhibition of binding by D01 (10 μmol/L)
D2, sequence (P14416 whole entry): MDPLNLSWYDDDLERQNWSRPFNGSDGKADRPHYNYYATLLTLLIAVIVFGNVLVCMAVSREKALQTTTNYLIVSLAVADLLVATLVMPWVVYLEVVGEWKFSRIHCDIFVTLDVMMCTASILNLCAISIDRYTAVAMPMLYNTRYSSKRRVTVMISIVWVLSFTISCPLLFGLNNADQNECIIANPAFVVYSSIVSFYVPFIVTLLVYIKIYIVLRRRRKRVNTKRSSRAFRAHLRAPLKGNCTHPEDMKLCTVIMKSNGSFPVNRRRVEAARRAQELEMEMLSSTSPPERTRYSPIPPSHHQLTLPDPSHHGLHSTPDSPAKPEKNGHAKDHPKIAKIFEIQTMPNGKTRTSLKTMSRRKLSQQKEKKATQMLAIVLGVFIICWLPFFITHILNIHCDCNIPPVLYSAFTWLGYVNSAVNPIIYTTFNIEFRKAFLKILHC

H1 = H1 (Homo sapiens, UniProt P35367); test: Receptor binding, [3H]-Pyrilamine
H1, sequence (P35367 whole entry): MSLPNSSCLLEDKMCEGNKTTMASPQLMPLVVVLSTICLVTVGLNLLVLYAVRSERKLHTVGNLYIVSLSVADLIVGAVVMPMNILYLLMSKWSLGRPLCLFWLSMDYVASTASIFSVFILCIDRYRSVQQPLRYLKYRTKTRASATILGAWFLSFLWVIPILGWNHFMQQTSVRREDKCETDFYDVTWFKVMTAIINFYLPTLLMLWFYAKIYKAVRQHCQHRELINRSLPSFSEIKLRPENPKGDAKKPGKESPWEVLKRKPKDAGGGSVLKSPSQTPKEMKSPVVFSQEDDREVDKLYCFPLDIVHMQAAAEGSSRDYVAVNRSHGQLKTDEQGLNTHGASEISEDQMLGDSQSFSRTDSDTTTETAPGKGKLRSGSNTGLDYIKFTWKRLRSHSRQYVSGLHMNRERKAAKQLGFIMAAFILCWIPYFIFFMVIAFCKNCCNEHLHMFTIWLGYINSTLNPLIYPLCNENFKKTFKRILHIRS

5-HT2C = 5-HT2C (Homo sapiens, UniProt P28335); test: Receptor binding, [3H]-Mesulergine; conditions: read-out: % Inhibition of binding by D01 (10 μmol/L)
5-HT2A = 5-HT2A (Homo sapiens, UniProt P28223); test: Receptor binding, [3H]-Ketanserin; conditions: read-out: % Inhibition of binding by D01 (10 μmol/L)
5-HT2A, sequence (P28223 whole entry, species assumed): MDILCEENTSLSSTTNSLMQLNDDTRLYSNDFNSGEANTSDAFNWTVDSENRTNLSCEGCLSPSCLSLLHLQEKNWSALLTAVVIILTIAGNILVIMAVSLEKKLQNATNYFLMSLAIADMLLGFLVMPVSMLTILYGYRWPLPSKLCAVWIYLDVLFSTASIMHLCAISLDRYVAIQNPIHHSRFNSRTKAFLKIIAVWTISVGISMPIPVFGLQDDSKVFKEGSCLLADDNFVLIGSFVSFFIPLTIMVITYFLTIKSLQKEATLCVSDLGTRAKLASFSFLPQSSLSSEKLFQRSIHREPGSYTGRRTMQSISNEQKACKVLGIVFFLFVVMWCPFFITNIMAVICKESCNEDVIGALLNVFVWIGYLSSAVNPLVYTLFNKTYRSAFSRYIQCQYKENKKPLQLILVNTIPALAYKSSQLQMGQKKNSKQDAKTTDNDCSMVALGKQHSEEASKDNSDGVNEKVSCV

animals = test: Observation of epileptic behavior in treated animals; type: in vivo; conditions: up to 100 mg/kg
5-HT1B = 5-HT1B (Homo sapiens, UniProt P28222); test: Receptor binding, [3H]-GR-125743; conditions: read-out: % Inhibition of binding by D01 (10 μmol/L)
5-HT1B, sequence (P28222 whole entry, species assumed): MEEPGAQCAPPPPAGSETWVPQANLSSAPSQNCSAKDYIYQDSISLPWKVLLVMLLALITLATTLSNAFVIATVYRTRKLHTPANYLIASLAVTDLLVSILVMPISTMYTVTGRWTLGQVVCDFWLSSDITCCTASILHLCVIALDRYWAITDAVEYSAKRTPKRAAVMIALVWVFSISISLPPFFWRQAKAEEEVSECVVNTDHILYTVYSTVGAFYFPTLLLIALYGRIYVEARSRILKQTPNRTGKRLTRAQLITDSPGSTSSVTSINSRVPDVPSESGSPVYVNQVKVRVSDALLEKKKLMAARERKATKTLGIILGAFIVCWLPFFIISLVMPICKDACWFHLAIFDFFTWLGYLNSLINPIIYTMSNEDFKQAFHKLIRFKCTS

α2 = test: Receptor binding, [3H]-Rauwolscine; conditions: α2, 10 μmol/L
[6] = target: serotonin transporter (SERT) (Rattus norvegicus, UniProt P31652); type: binding
D3 = D3 (Homo sapiens, UniProt P35462); test: Receptor binding, [3H]-Spiperone; conditions: read-out: % Inhibition of binding by D01 (10 μmol/L)
[7] = fluoxetine 20 mg/kg i.g., 21 days

O=C1c2ccccc2C(Cc2ccncc2)(Cc2ccncc2)c2ccccc21 [XE991, reference compound]
reduction of immobility in TST (CRS mice [1]; 1 mg/kg s.c.): not statistically significant
discrimination index (DI) (scopolamine-treated mice; scopolamine 1 mg/kg i.p. + XE991 1 mg/kg s.c.): 0.36 ± 0.04
reduction of immobility in FST (CRS mice [2]; 1 mg/kg s.c.): not statistically significant
effect on native M current (native KCNQ/M channels; 3 μmol/L): inhibited
time spent on familiar object (normal mice; 1 mg/kg s.c.): 16.50 ± 2.63 s
time spent on novel object (normal mice; 1 mg/kg s.c.): 38.40 ± 3.80 s
effect on time and distance in target quadrant, probe trial Day 5 (CRS mice [3]; XE991 1 mg/kg s.c.): did not exhibit any noticeable effects
escape latency after four days of training (CRS mice [3]; XE991 1 mg/kg s.c.): 33.4 ± 3.4 s
initial escape latency (CRS mice [3]; XE991 1 mg/kg s.c.): 48.9 ± 3.4 s

CNCCC(Oc1ccc(C(F)(F)F)cc1)c1ccccc1 (centres unmarked) [fluoxetine, reference compound]
immobility time in TST (CRS mice [1]; [7]): 69.8 ± 14.9 s
improvement in scopolamine-induced cognitive impairment (scopolamine-treated mice; scopolamine 1 mg/kg i.p. + fluoxetine 100 mg/kg i.g.): did not show any noticeable improvement
immobility time in FST (CRS mice [2]; [7]): 18.7 ± 6.3 s
difference in time spent on novel and familiar objects (normal mice; fluoxetine 100 mg/kg i.g.): no obvious difference
effect on escape latency (CRS mice [3]; fluoxetine 20 mg/kg i.g.): did not show any significant effect
effect on time and distance in target quadrant, probe trial Day 5 (CRS mice [3]; fluoxetine 20 mg/kg i.g.): did not exhibit any noticeable effects

CC(CN(C)C)C(Oc1cccc2ccccc12)c1cccs1 (centres unmarked) [Compound D01, N,N,2-trimethyl-3-(1-naphthyloxy)-3-(thien-2-yl) propan-1-amine]
immobility time in TST (CRS mice [1]; 20 mg/kg i.g., 21 days (D01)): 87.61 ± 12.04 s
immobility time in TST (CRS mice [1]; 40 mg/kg i.g., 21 days): 68.17 ± 20.30 s
IC50 (KCNQ2/3 channels): 10.1 ± 2.4 µM
IC50 (α1; read-out: IC50 for D01, α1): > 10 µM
% Inhibition of binding by D01 (10 μmol/L) (α1; α1, 10 μmol/L): 56.21%
inhibition at 10 µM (Sigma-1): 34%
inhibition at 10 µM (H3): 13.9%
effect on resting membrane potential (hippocampal neurons): depolarizes
significant increase of firing frequency (hippocampal neurons): did not observe
inhibition at 10 µM (D1): 16.3%
discrimination index (DI) (scopolamine-treated mice; scopolamine 1 mg/kg i.p. + 10 mg/kg i.g.): 0.21 ± 0.08
discrimination index (DI) (scopolamine-treated mice; scopolamine 1 mg/kg i.p. + 30 mg/kg i.g.): 0.36 ± 0.03
discrimination index (DI) (scopolamine-treated mice; scopolamine 1 mg/kg i.p. + 100 mg/kg i.g.): 0.45 ± 0.05
IC50 (SERT): 0.045 ± 0.009 µM
minimal effective dose (MED), immobility in TST (mice [4]): 10 mg/kg
effect on scopolamine-induced LTP inhibition (hippocampal slices, CA1): significantly reversed
minimal effective dose (MED), immobility in FST (mice [5]): 30 mg/kg
% Inhibition of binding by D01 (10 μmol/L) (NMDA): 9.83%
inhibition at 10 µM (M1): 24.7%
inhibition at 10 µM (5-HT1A): -24.1%
inhibition at 10 µM (D2): 16.1%
IC50 (H1): > 10 µM
inhibition at 10 µM (H1; read-out: % Inhibition of binding by D01 (10 μmol/L)): 61.8%
immobility time in FST (CRS mice [2]; 20 mg/kg i.g., 21 days (D01)): 54.53 ± 18.11 s
immobility time in FST (CRS mice [2]; 40 mg/kg i.g., 21 days): 44.62 ± 17.03 s
inhibition at 10 µM (5-HT2C): 38%
inhibition at 10 µM (5-HT2A): 25.1%
epileptic behavior (animals): did not observe
effect on native M current (native KCNQ/M channels; 100 μmol/L): dramatically inhibits
inhibition at 10 µM (5-HT1B): 12%
time spent on familiar object (normal mice; 30 mg/kg i.g.): 7.20 ± 2.73 s
time spent on novel object (normal mice; 30 mg/kg i.g.): 18.10 ± 6.42 s
time spent on familiar object (normal mice; 100 mg/kg i.g.): 10.90 ± 2.50 s
time spent on novel object (normal mice; 100 mg/kg i.g.): 21.90 ± 4.84 s
% Inhibition of binding by D01 (10 μmol/L) (α2): 38.43%
distance traveled while crossing the target zone, probe trial Day 5 (CRS mice [3]; 10 mg/kg i.g.): 4748.7 ± 308.1 cm
escape latency after four days of training (CRS mice [3]; 10 mg/kg i.g.): 37.3 ± 3.1 s
initial escape latency (CRS mice [3]; 10 mg/kg i.g.): 51.1 ± 2.5 s
distance traveled while crossing the target zone, probe trial Day 5 (CRS mice [3]; 20 mg/kg i.g.): 4501.3 ± 266.5 cm
escape latency after four days of training (CRS mice [3]; 20 mg/kg i.g.): 32.2 ± 3.6 s
initial escape latency (CRS mice [3]; 20 mg/kg i.g.): 45.7 ± 3.7 s
time in the target quadrant, probe trial Day 5 (CRS mice [3]; 20 mg/kg i.g.): 15.8 ± 0.8 s
distance traveled while crossing the target zone, probe trial Day 5 (CRS mice [3]; 40 mg/kg i.g.): 4357.5 ± 310.9 cm
escape latency after four days of training (CRS mice [3]; 40 mg/kg i.g.): 30.1 ± 3.9 s
initial escape latency (CRS mice [3]; 40 mg/kg i.g.): 42.6 ± 3.5 s
time in the target quadrant, probe trial Day 5 (CRS mice [3]; 40 mg/kg i.g.): 16.2 ± 0.8 s
Ki [6]: 0.0301 ± 0.0069 µM
inhibition at 10 µM (D3): 32.8%

CCOC(=O)Nc1ccc(NCc2ccc(F)cc2)cc1N [RTG, retigabine]
effect on native M current (native KCNQ/M channels; 10 μmol/L): activated

CCN(C)C(=O)Oc1cccc([C@H](C)N(C)C)c1 [rivastigmine, reference compound]
improvement in scopolamine-induced cognitive impairment (scopolamine-treated mice; scopolamine 1 mg/kg i.p. + 0.01 mg/kg s.c.): did not show any noticeable improvement

Source: article PMC10935023 (Acta Pharmaceutica Sinica. B, 2023)
